# Experimental data from paper PMC3441526, “KCN1, a Novel Synthetic Sulfonamide Anticancer Agent: In Vitro and In Vivo Anti-Pancreatic Cancer Activities and Preclinical Pharmacology” (PLoS ONE, 2012).
# Like-named read-outs stand apart in the source and are kept apart here.
# Assays:
# BxPC3 cells = assay: MTT cell survival assay; assay type: cell-based; details: Homo sapiens, BXPC-3
# Procedure: (§1) The effect of the test compound on human pancreatic cancer cell viability, expressed as the percentage of cell survival, was determined using the MTT assay [45]–[47]. Cells were grown in 96-well plates at 4–5×10^3 cells per well and exposed to different concentrations of the test compound (0, 1, 5, 12.5, 25, 50 or 100 µM). After incubation for different times, 10 µL of the MTT solution (5 mg/mL; Sigma; St. Louis, MO) were added into each well. The plates were incubated for 2–4 hr at 37°C. The supernatant was then removed and the formazan crystals were dissolved with 100 µL of DMSO. The absorbance at 570 nm was recorded using an OPTImax microplate reader (Molecular Devices; Sunnyvale, CA). The cell survival percentages were calculated by dividing the mean optical density (OD) of compound-containing wells by that of DMSO-containing control wells. Three separate experiments were accomplished to determine the IC50 values.
# HPAC cells = assay: MTT cell survival assay; assay type: cell-based; details: Homo sapiens, 72 h
# Procedure: as §1
# Mia Paca-2 cells = assay: MTT cell survival assay; assay type: cell-based; details: Homo sapiens
# Procedure: as §1
# Panc-1 cells = assay: MTT cell survival assay; assay type: cell-based; details: Homo sapiens
# Procedure: as §1
# [1] = Plasma stability determination; assay type: in vitro ADME, mouse
# Procedure: The validated HPLC method was used to evaluate the stability of KCN1 in mouse plasma at 37°C, 4°C and −80°C. KCN1 was dissolved in methanol and diluted with plasma to achieve the two concentrations used in the study: 1 and 10 µM. At the designated time points, samples were removed and extracted using the aforementioned procedure. KCN1 concentrations were quantified and, to illustrate the in vitro stability of the compound, expressed as percentages of the initial concentration.
# [2] = Pharmacokinetic study in mice; assay type: in vivo, nude mice (nu/nu); details: for dose recovered as parental KCN1 from urine: first 24 hr
# Procedure: Female CD-1 and nude mice were administered 35 mg/kg body weight of KCN1 as either a single intravenous injection via a tail vein or via an intraperitoneal injection. At selected time points after dosing, groups of three mice/time point were subjected to a retro-orbital bleed. The blood was collected into heparinized tubes, and plasma was separated by centrifugation. Tissues (brain, skeletal muscle, kidneys, liver, spleen, and heart) were collected by necropsy. Urine and feces were collected on ice for 24 h from mice housed in metabolic cages (n = 3/study). The collection containers and cages were washed twice with 0.9% saline solution, and each urine collection and each wash was analyzed separately, then values were added together for each mouse to determine the total KCN1 present in urine during the collection period. Pharmacokinetic values were derived using Phoenix WinNonlin Version 6.0 (Mountain View, CA).
# An HPLC protocol was developed to detect KCN1 in different matrices (plasma, urine or tissue homogenates) using an Agilent 1120 instrument. KCN1 was separated on a Zorbax SB-C18 (5 µm, 150 × 4.6 mm) analytical column with a Zorbax Reliance Cartridge Guard Column (SB-C18), and the eluate was monitored by UV at 254 nm. The mobile phase was composed of “A” (methanol +0.1% Et3N)-“B” (ddH2O+0.1% Et3N) (80∶20, v/v). Prior to application, the mobile phase was filtered and degassed using a Millipore glass filter system with a nylon membrane (0.2 µm). The peaks for KCN1 were used to establish standard curves and for quantitative analysis of samples. Quantification of the compound was achieved by determination of the peak area at the retention time of approximately 4.4 minutes.
# Plasma (100 µL) was mixed with 200 µL of methanol, vortexed, and centrifuged to remove precipitated proteins. The supernatant was evaporated to dryness under a stream of air. The residue was dissolved in 100 µL of the mobile phase, and 10 µL was injected onto the HPLC system for analysis. Weighed tissues were homogenized in two to five volumes of PBS (based on the weight of the tissue samples), and portions of the homogenates were processed in the same manner as the plasma samples.
# [3] = Tolerability on repeated intraperitoneal dosing; assay type: in vivo, mice
# glioma cells = test system: glioma cells; design: method as in PMID 22923450; details: glioma cells ref 31; cited from earlier work
# immortalized fibroblasts = test system: immortalized fibroblasts; design: method as in PMID 22923450; details: immortalized fibroblasts ref 31; cited from earlier work
# [4] = nude mice, 35 mg/kg, either route
compound,measurement,setting,value
"COc1ccc(S(=O)(=O)N(Cc2ccc3c(c2)C=CC(C)(C)O3)c2ccccc2)cc1OC [KCN1, 3,4-dimethoxy-N-[(2,2-dimethyl-2H-chromen-6-yl)methyl]-N-phenylbenzenesulfonamide]",inhibition at 100 µM,"BxPC3 cells; BxPC3, 100 µM, 72 h, read-out: inhibition of cell growth",81%
same,IC50,"BxPC3 cells; BxPC3, 72 h, MTT, read-out: Cytotoxicity: IC50",14.62 ± 0.1 µM
same,inhibition at 100 µM,"HPAC cells; 100 µM, read-out: inhibition of cell growth",83%
same,IC50,"HPAC cells; MTT, read-out: Cytotoxicity: IC50",17.91 ± 0.12 µM
same,inhibition at 100 µM,"Mia Paca-2 cells; Mia Paca-2, 100 µM, 72 h, read-out: inhibition of cell growth",61%
same,IC50,"Mia Paca-2 cells; Mia Paca-2, 72 h, MTT, read-out: Cytotoxicity: IC50",69.9 ± 2.12 µM
same,inhibition at 100 µM,"Panc-1 cells; Panc-1, 100 µM, 72 h, read-out: inhibition of cell growth",53%
same,IC50,"Panc-1 cells; Panc-1, 72 h, MTT, read-out: Cytotoxicity: IC50",100 ± 2.35 µM
same,compound remaining in mouse plasma,"[1]; 4°C, at least 24 hr",more than 90%
same,compound remaining in mouse plasma,"[1]; 37°C, 8 hr, 1 µM",more than 80%
same,compound remaining in mouse plasma,"[1]; 37°C, 8 hr, 10 µM",more than 80%
same,compound remaining in mouse plasma,"[1]; −80°C, up to 4 wks",more than 92%
same,Tmax,"[2]; female, nude (nu/nu), mouse, plasma, ip, nude mice, I.P. 35 mg/kg, read-out: time of maximum plasma level",2 h
same,concentration at 6 h,"[2]; female, nude (nu/nu), mouse, plasma, iv, nude mice, I.V. 35 mg/kg, 6 h after dosing",< 300 ng/mL
same,concentration at 5 min,"[2]; female, nude (nu/nu), mouse, plasma, iv, nude mice, bolus I.V. 35 mg/kg, 5 minutes",5190 ng/mL
same,half-life,"[2]; female, nude (nu/nu), mouse, Brain, Nu/nu, IP 35 mg/kg",0.95 h
same,Tmax,"[2]; female, nude (nu/nu), mouse, Brain, Nu/nu, IP 35 mg/kg, read-out: Tmax",1 h
same,half-life,"[2]; female, nude (nu/nu), mouse, Brain, Nu/nu, IV 35 mg/kg",3.38 h
same,Tmax,"[2]; female, nude (nu/nu), mouse, Brain, Nu/nu, IV 35 mg/kg, read-out: Tmax",0.08 h
same,half-life,"[2]; female, nude (nu/nu), mouse, Heart, Nu/nu, IP 35 mg/kg",1.22 h
same,Tmax,"[2]; female, nude (nu/nu), mouse, Heart, Nu/nu, IP 35 mg/kg, read-out: Tmax",0.08 h
same,half-life,"[2]; female, nude (nu/nu), mouse, Heart, Nu/nu, IV 35 mg/kg",0.36 h
same,Tmax,"[2]; female, nude (nu/nu), mouse, Heart, Nu/nu, IV 35 mg/kg, read-out: Tmax",4 h
same,half-life,"[2]; female, nude (nu/nu), mouse, Kidneys, Nu/nu, IP 35 mg/kg",22.4 h
same,Tmax,"[2]; female, nude (nu/nu), mouse, Kidneys, Nu/nu, IP 35 mg/kg, read-out: Tmax",0.25 h
same,half-life,"[2]; female, nude (nu/nu), mouse, Kidneys, Nu/nu, IV 35 mg/kg",1.8 h
same,Tmax,"[2]; female, nude (nu/nu), mouse, Kidneys, Nu/nu, IV 35 mg/kg, read-out: Tmax",0.08 h
same,half-life,"[2]; female, nude (nu/nu), mouse, Liver, Nu/nu, IP 35 mg/kg",2.52 h
same,Tmax,"[2]; female, nude (nu/nu), mouse, Liver, Nu/nu, IP 35 mg/kg, read-out: Tmax",0.5 h
same,half-life,"[2]; female, nude (nu/nu), mouse, Liver, Nu/nu, IV 35 mg/kg",3.39 h
same,Tmax,"[2]; female, nude (nu/nu), mouse, Liver, Nu/nu, IV 35 mg/kg, read-out: Tmax",2 h
same,half-life,"[2]; female, nude (nu/nu), mouse, Lungs, Nu/nu, IP 35 mg/kg",1.04 h
same,Tmax,"[2]; female, nude (nu/nu), mouse, Lungs, Nu/nu, IP 35 mg/kg, read-out: Tmax",1 h
same,half-life,"[2]; female, nude (nu/nu), mouse, Lungs, Nu/nu, IV 35 mg/kg",2 h
same,Tmax,"[2]; female, nude (nu/nu), mouse, Lungs, Nu/nu, IV 35 mg/kg, read-out: Tmax",0.25 h
same,half-life,"[2]; female, nude (nu/nu), mouse, Muscle, Nu/nu, IP 35 mg/kg",2.97 h
same,Tmax,"[2]; female, nude (nu/nu), mouse, Muscle, Nu/nu, IP 35 mg/kg, read-out: Tmax",0.25 h
same,half-life,"[2]; female, nude (nu/nu), mouse, Muscle, Nu/nu, IV 35 mg/kg",2.28 h
same,Tmax,"[2]; female, nude (nu/nu), mouse, Muscle, Nu/nu, IV 35 mg/kg, read-out: Tmax",0.08 h
same,half-life,"[2]; female, nude (nu/nu), mouse, Plasma, Nu/nu, IP 35 mg/kg",2.65 h
same,half-life,"[2]; female, nude (nu/nu), mouse, Plasma, Nu/nu, IV 35 mg/kg",0.6 h
same,half-life,"[2]; female, nude (nu/nu), mouse, Spleen, Nu/nu, IP 35 mg/kg",0.81 h
same,Tmax,"[2]; female, nude (nu/nu), mouse, Spleen, Nu/nu, IP 35 mg/kg, read-out: Tmax",24 h
same,half-life,"[2]; female, nude (nu/nu), mouse, Spleen, Nu/nu, IV 35 mg/kg",1.4 h
same,Tmax,"[2]; female, nude (nu/nu), mouse, Spleen, Nu/nu, IV 35 mg/kg, read-out: Tmax",2 h
same,dose recovered as parental KCN1 from urine,"[2]; nude mice, 35 mg/kg I.P.",less than 0.5%
same,dose recovered as parental KCN1 from urine,"[2]; nude mice, 35 mg/kg intravenously",less than 1%
same,detection in brain,[2]; [4],could not be detected after 6 h
same,"time detectable in heart, lungs, liver, spleen, kidneys and skeletal muscle",[2]; [4],at least 24 h
same,time plasma concentration still detectable,"[2]; nude mice, I.P. 35 mg/kg",≥ 24 h
same,time plasma concentration still detectable,"[2]; nude mice, I.V. 35 mg/kg",at least 6 h
same,"pathological examination of brain, kidneys, GI tract or lungs at necropsy",[3]; data not shown,no ultra-structural changes
same,"signs of toxicity, behavior and appearance",[3]; i.p. up to 60 mg/kg daily for up to 12 weeks,no apparent signs of toxicity
same,tolerability of regimen,[3]; i.p. up to 60 mg/kg daily in cremophor:ethanol for up to 12 weeks,well tolerated
same,time to reversal of liver swelling after discontinuation of treatment,"[3]; mouse, in vivo",2–3 weeks
same,blood cell populations and blood chemistry,"[3]; preliminary analyses, data not shown",within normal limits
same,liver finding at autopsy,"[3]; tissue edema with bile duct stasis, no hepatocyte death, may be caused by cremophor:ethanol formulation",Swelling was observed in the livers
same,cytostatic effect,glioma cells,little cytostatic effect
same,cytostatic effect,immortalized fibroblasts,little cytostatic effect
